Results as given in patent US11512042B2, “Enamine compounds for absorbance of electromagnetic energy” (Commonwealth Scientific and Industrial Research Organisation, priority 2015, dated 2022).
Values joined by “and” are separate entries in the source; they are usually repeats but may differ in a detail not shown here. Equal values may be shown once.

Experiments:
Assay type in all cases: physicochemical
[1] = Photostability protocol: thin film irradiated with xenon arc lamp; details: 1 hour xenon arc lamp; for Photostability: ratio of absorbance at λmax irradiated vs unirradiated, ^a = average of multiple measurements
Method: 1 mL of a 3% solution of the test compound (30 mg of test compound in 1 mL solvent) was prepared in a solvent mix made up of 50% EtOH and 25% capric/caprylic triglyceride and 25% C12-C15 alkyl benzoate. 50 μL of this solution (containing 1.5 mg of test compound) was added carefully to the centre of a glass microscope slide and the volatile components left to evaporate in the dark for at least 3 hours to give a liquid film. The prepared films were then exposed for 1 hour to an Eimac 150 W xenon arc lamp filtered through Pyrex (15 Amp supply current, samples 19 cm from the lamp) previously allowed to warm up for 15 minutes prior to sample exposure. The irradiation was performed in a fume cupboard where the air flow was sufficient to keep sample T<30° C. One hour's exposure represented a calculated radiation dose (using meter) of approximately 100 MED.
In order to calculate the photostability of the test compounds, the exposed slides were placed in a beaker and rinsed with 2×5 mL EtOH, 1×5 mL MeOH. The combined washings were then added to a 100 mL volumetric flask and made up to 100 mL total volume with methanol. The UV absorbance was then measured in a 10 mm cuvette. The percent stability is measured as the ratio of absorbance at λmax for the irradiated sample compared to the unirradiated sample.
The thin films are a good surrogate for testing the stability of a candidate in, for example, a sunscreen formulation as they use cosmetic emollients as solvent and are formed at cosmetically relevant concentrations.

[2] = UV absorbance spectrum in solution (λmax, λcrit, extinction coefficients); details: for λcrit: critical wavelength; for E (1%, 1 cm): mass extinction coefficient; for ε: molar extinction coefficient, in M-1 cm-1 (unit assumed)
Text: (§1) FIG. 1 is a graphical representation of the absorbance of compounds 142 and 143 measured in a 10 mm cuvette as 0.001% solutions in methanol (142 is the uppermost trace at peak point of approximately 330 nm); The synthesised benzoyl functionalised compounds and their spectroscopic properties can be seen in table 2 wherein; breakthrough denotes the value in nm where transmittance increases beyond 1%; steepness refers to the distance in nm over which transmittance increases from 1 to 80% (a higher value indicates a less steep transition from absorbing to transmitting and is generally unfavourable); and ^a denotes an average of multiple measurements. As a general comment, it can be noted that the benzoyl substituted compounds gave similar absorbance maxima to the corresponding trifluoroacetyl derivative.

[3] = % transmission spectrum of 0.1% solution (breakthrough, steepness); details: for Steepness: distance in nm over which transmittance increases from 1 to 80%; for Breakthrough (1% T at 0.1%): value in nm where transmittance increases beyond 1%, 0.1% solution
Text: FIG. 2 is a is a graphical representation of the % transmission of compounds 142 and 143 measured in a 2 mm cuvette as 0.1% solutions in methanol (142 is the left most trace);
as §1, with “The” for “FIG. 1 is a graphical representation of the absorbance of compounds 142 and 143 measured in a 10 mm cuvette as 0.001% solutions in methanol (142 is the uppermost trace at peak point of approximately 330 nm); The”

Compound | Photostability [1] | λmax [2] | λcrit [2] | E (1%, 1 cm) [2] | ε [2] | Steepness [3] | Breakthrough (1% T at 0.1%) [3] | Photostability (% remains) [1]
CCCCCCC(=O)C1=CN(c2ccc(N3C=C(C(=O)CCCCCC)C(C)(C)CC3)cc2)CCC1(C)C [Compound 129, reference compound] |  | 359 nm | 378 nm | 1169 and 1350 | 60809 and 70222 | 20 nm | 397 nm | 
CCCCC(CC)COC(=O)c1ccc(N(/C=C(\C(=O)C(F)(F)F)c2ccccc2)CC)cc1 (centres unmarked) [Compound 227] |  | 347 nm | 374 nm | 646 | 30252 |  |  | 85%
O=C(/C(=C\N1CCCN(/C=C(\C(=O)C(F)(F)F)c2ccccc2)c2ccccc21)c1ccccc1)C(F)(F)F [Compound 224] |  | 323 nm | 366 nm | 690 | 37546 |  |  | 97%
CCN(/C=C(\C(=O)C(F)(F)F)c1ccccc1)CCCCCCN(/C=C(\C(=O)C(F)(F)F)c1ccccc1)CC [Compound 242] |  | 318 nm | 353 nm | 544 | 30981 | 52 nm | 361 nm | 
CCN(/C=C(\C(C)=O)c1ccccc1)CC [Compound 149] |  | 294 nm |  | 690 | 14973 |  |  | 6%
CCN(/C=C(/C(=O)C(F)(F)F)c1ccccc1)c1ccc(C(=O)OC)cc1 [Compound 239] |  | 348 nm | 375 nm | 728 | 25349 | 28 nm | 391 nm | 
CCCCC(CC)COC(=O)c1cccc(N(/C=C(/C(=O)C(F)(F)F)c2ccccc2)CC)c1 (centres unmarked) [Compound 232] |  | 334 nm | 368 nm | 430 | 20462 | 35 nm | 373 nm | 
O=C(/C(=C\N1CCc2ccc(C(F)(F)F)cc21)c1ccccc1)C(F)(F)F [Compound 236] |  | 364 nm | 387 nm | 815 | 31379 | 19 nm | 409 nm | 
O=C(/C(=C(/c1ccccc1)N1CCCC1)c1ccccc1)C(F)(F)F [Compound 204] |  | 363 nm | 387 nm | 358 | 12357 |  |  | 70%
CCOC(=O)/C(=C\N(C)C)c1ccccc1 [Compound 171] |  | 291 nm |  | 1169 | 22598 |  |  | 18%
CN(/C=C(\C(=O)C(F)(F)F)c1ccccc1)c1ccccc1 [Compound 183] | 90% | 332 nm | 367 nm | 759 | 23153 |  |  | 90%
O=C(OCCCOC(=O)c1ccc2c(c1)CCN2/C=C(\C(=O)C(F)(F)F)c1ccccc1)c1ccc2c(c1)CCN2/C=C(\C(=O)C(F)(F)F)c1ccccc1 [Compound 228] |  | 374 nm | 391 nm | 1168 | 89042 |  |  | 95%
CCN(/C=C(\C(=O)c1c(F)c(F)c(F)c(F)c1F)c1ccccc1)CC [Compound 203] |  | 319 (broad) nm | 356 nm | 611 | 22532 |  |  | 31%
O=C(/C(=C\N1CCc2cc(C(F)(F)F)ccc21)c1ccccc1)C(F)(F)F [Compound 235] |  | 361 nm | 386 nm | 965 | 37158 | 19 nm | 409 nm | 
CCCCC(CC)COC(=O)c1ccc(N(/C=C(\C(=O)C(F)(F)F)c2ccccc2)c2ccccc2)cc1 (centres unmarked) [Compound 230] |  | 355 nm | 381 nm | 522 | 27313 | 34 nm | 398 nm | 
COc1ccc2c(c1)CCN2/C=C(\C(=O)C(F)(F)F)c1ccccc1 [Compound 200] |  | 381 nm | 393 nm | 1004 | 34855 |  |  | 91%
CCN(/C=C(\C(=O)C(F)(F)C(F)(F)C(F)(F)F)c1ccccc1)c1ccccc1 [Compound 191] |  | 332 nm | 370 nm | 452 | 18948 |  |  | 95%
COC(=O)c1ccc(N(/C=C(\C(=O)C(F)(F)F)c2ccccc2)c2ccccc2)cc1 [Compound 229] |  | 356 nm | 382 nm | 786 | 33427 | 33 nm | 403 nm | 

The next lines start with the values.

Photostability [1] | λmax [2] | λcrit [2] | E (1%, 1 cm) [2] | ε [2] | Steepness [3] | Breakthrough (1% T at 0.1%) [3] | Photostability (% remains) [1] | Compound
40% | 313 nm | 352 nm | 726 | 19983 | 38 nm | 363 nm |  | CCOC(=O)C(=O)/C(=C/N(CC)CC)c1ccccc1 [Compound 260]
 | 376 nm | 392 nm | 703 | 30040 | 34 nm | 419 nm |  | COC(=O)c1ccc2c(c1)CCN2/C=C(/C(=O)C(=O)Oc1ccccc1)c1ccccc1 [Compound 281]
 | 360 nm | 387 nm | 327 | 15775 | 48 nm | 418 nm |  | CN(C)S(=O)(=O)c1ccc(C(=O)/C(=C/N(c2ccccc2)c2ccccc2)c2ccccc2)cc1 [Compound 265]
 | 371 nm | 389 nm | 1150 | 45689 | 30 nm | 423 nm |  | COC(=O)c1ccc2c(c1)CCN2/C=C(/C(=O)c1ccc(C)cc1)c1ccccc1 [Compound 284]
 | 368 nm | 390 nm | 552 | 23870 | 46 nm | 429 nm |  | CN(C)S(=O)(=O)c1ccc(C(=O)/C(=C/N2CCc3ccccc32)c2ccccc2)cc1 [Compound 266]
 | 344 nm | 373 nm | 492 | 17462 | 28 nm | 383 nm |  | CC(C)(C)C(=O)/C(=C/N(c1ccccc1)c1ccccc1)c1ccccc1 [Compound 294]
 | 356 nm | 370 nm | 1360 | 57009 | 28 nm | 383 nm |  | COC(=O)c1ccc2c(c1)CCN2/C=C(/C(=O)OC1(C)CCCCC1)c1ccccc1 [Compound 288]
 | 370 nm | 389 nm | 1205 | 47867 | 46 nm | 423 nm |  | COC(=O)c1ccc2c(c1)CCN2/C=C(/C(=O)c1cccc(C)c1)c1ccccc1 [Compound 286]
